Here are results for two sequences from patent publication US10058587B2, “Peptide composition for cancer treatment by inhibiting TRPV6 calcium channel activity” (priority 2008, dated 2018).

Data set [1] is described as follows: Single dose acute intravenous bolus toxicity study with 5-day observation. The data set is classed as in vivo, CD-1 mice. The protocol:
A single dose acute intravenous bolus injection toxicity study followed by a 5-day observation period in CD-1 mice was performed as described below. Three doses of each of SorC13 and SorC27 were used (10, 100 and 500 mg/Kg). Daily cage-side exams for 5 days with hourly exams for the first 4 hrs post injection. As part of the analysis the following assessments were made: body weights prior to dosing and at termination; all animals were necropsied (including preparation of bone marrow smears); organ weights were taken of all animals.
(§1) After in vivo i.v. injection into CD1 mice, SorC13 caused a small spike (approximately 25%) in blood pressure in the first 15 min which disappeared by 1 hour.

Data set [2] in a line: Tissue distribution of Cy5.5-labeled peptides by optical imaging. To be noted: Cy5.5-tagged peptide. The format is in vivo, CD1 mice. An excerpt: SorC13 and SorC27 were labeled with the near-infrared probe, Cy5.5. SorC13 was labeled at lysine-1 and lysine-8 with the infrared fluorescent probe cy5.5 through reaction with Cy5.5 NHS ester-activated process. SorC27 was labeled at the single cysteine thiol with Cy5.5 maleamide-activated reaction. The labeled peptides were purified with a combination of size exclusion chromatography and HPLC. The label, Cy5.5, fluoresces in the infra-red region after excitation with a scanning laser. The low energy laser is able to penetrate the animal to about 1 cm and, thus, by scanning prone and supine positions, the presence of the tagged peptides can be quantified in three dimensions.
Cy5.5-labeled peptides were intravenously injected into CD1 mice (4 for each compound) at 100 ug per animal in 100 uL, and animals were imaged live using an optical imaging system, Optix eXplorer (GE Healthcare Systems) at different time points (30 min, 90 min, 4 h). […] The bio-distribution of the labeled peptides in different organs and tissues were visualized and relatively quantified by optical imaging analysis. This protocol allows for visualization of the location of the labeled peptides and how the location changes over time. […] Nodes that accumulated the labeled peptides are indicated by line 1 (superfacial cervical nodes), line 4 (axillary nodes), line 5 (brachial nodes), line 8 (mesenteric nodes) and line 9 (inguinal nodes). FIGS. 8, 9 and 10 show the amounts of labeled peptides in various organs ex vivo.

Data set [3] is described as follows: Clearance route in iv mice. The note with it: i.v.
The nature of data set [4]: Solubility (aqueous).
Data set [5] is described as follows: Degradation rate in rat plasma (HPLC). The data set is classed as in vitro ADME. The protocol: (§2) Rat plasma was obtained from blood taken from sacrificed rats (Sprague-Dawley) and placed into heparinized glass vials to prevent clotting. Whole blood was centrifuged at 8000×g for 5 minutes to spin down the cells leaving the plasma as supernatant. Human whole blood samples from healthy humans were taken in lithium-heparinized vacuum tubes. The samples were placed into 2.0 mL microcentrifuge tubes and centrifuged at 8000×g for 5 min. The plasma was carefully separated from red blood cells and used immediately.
(§3) Determination of degradation rate of the C-peptides was done by measuring, with the HPLC protocol, the amount of either SorC13 or SorC27 in dosed plasma samples, after time. Sample tubes (500 uL) containing 2 uL of 2 mM Pefabloc were previously prepared for sample delivery SorC13 (1.0 mg) or SorC27 (2.0 mg) were dissolved in 1.0 mL of fresh plasma (37° C.) and placed in an incubating water bath at 37° C. A sample (100 uL) was taken immediately and quenched in sample tubes containing 2 uL of 2 mM Pefabloc, mixed vigorously and immediately frozen at −80° C. This initial sample represented time zero for the run. At successive time intervals of 5 minutes, 100 uL samples were withdrawn, quenched in Pefabloc, mixed, and frozen at −80° C. until analysis.
(§4) The rat plasma degradation rate was determined for the plasma from three different rats, while the rate of degradation in human plasma used six separate plasma samples. The data used were the means (±SEM) and were fitted to a simple one-phase exponential decay model to determine the half-life of the two peptides. This also allowed the calculation of a static degradation rate. FIG. 11 is illustrative of the rate at which SorC27 was degraded in human plasma.

The nature of data set [6]: Physiological effects after i.v. injection into CD1 mice (blood pressure, heart rate, neurological/behavioral). The data set is classed as in vivo. Here is the method: as §1
The target of data set [7] is T1, human TRPV6b (Homo sapiens, UniProt Q9H1D0).
T1 construct: expressed in transfected cells; host or cells: LnCaP (ATCC CRL-1740), human lymph node prostate cancer cells
T1 sequence (Q9H1D0 41-765 limits assumed): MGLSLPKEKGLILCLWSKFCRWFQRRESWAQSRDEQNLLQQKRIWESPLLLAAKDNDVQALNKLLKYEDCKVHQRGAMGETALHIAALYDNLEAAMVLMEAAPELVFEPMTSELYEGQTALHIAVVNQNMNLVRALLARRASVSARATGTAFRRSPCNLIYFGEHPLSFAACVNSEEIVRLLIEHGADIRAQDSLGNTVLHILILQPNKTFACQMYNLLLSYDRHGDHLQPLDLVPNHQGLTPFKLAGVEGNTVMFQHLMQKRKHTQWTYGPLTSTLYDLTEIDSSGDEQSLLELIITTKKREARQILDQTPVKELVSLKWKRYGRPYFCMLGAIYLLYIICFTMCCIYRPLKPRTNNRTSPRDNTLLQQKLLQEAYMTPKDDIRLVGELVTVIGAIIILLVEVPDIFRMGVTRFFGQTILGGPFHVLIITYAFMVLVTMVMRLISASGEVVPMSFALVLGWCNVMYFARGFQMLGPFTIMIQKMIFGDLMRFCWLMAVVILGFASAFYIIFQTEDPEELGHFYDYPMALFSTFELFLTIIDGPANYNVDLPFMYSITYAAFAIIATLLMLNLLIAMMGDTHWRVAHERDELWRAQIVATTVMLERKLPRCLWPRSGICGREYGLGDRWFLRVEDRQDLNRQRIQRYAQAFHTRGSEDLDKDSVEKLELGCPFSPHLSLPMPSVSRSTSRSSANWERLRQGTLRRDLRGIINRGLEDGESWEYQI
The data set is described as follows: Whole-cell patch clamp of calcium store operated current (ISOC) through TRPV6 in transfected LnCaP cells. The data set is classed as cell-based. Here is the method: An expression vector (pCAGS-IRES-hTRPV6b) (Bodding et al. 2003) containing the nucleotide code for human TRPV6b was transfected into and expressed by human lymph node prostate cancer (LnCaP, ATCC CRL-1740). Patch clamping with whole-cell current acquisition was used to measure the calcium current through this channel. Cells were treated and calcium store operated current (ISOC) was measured with either SorC13 (n=90) or SorC27 (n=30) in a closed-circuit perfusion for 3 min at each of cumulative concentrations of 0 (baseline), 100 nM, 500 nM 1 uM, 30 uM and 100 uM. Washout perfusion was done at 2 mL/min for 3 min. […] Further, both C-peptides are very strong inhibitors of calcium current through the TRPV6 channel with inhibition constants in the 100 nM range.

Data set [8] can be described thus: Storage stability of solid and aqueous solution. The format is physicochemical. The protocol: Additionally, the peptides have greater shelf-life stability and solution stability due to the presence of fewer sensitive disulfide bonds (soricidin has 3 disulfide bonds). The peptides of the invention optionally have no disulfide bonds. An absence of disulfide bonds provides a very long shelflife during storage under minimal refrigeration or at room temperature as a solid. Additionally when the peptides of the invention with no disulfide bonds are dissolved in water, cleavage of disulfide bonds cannot occur. […] The formation of inter-peptide S—S bonds also results in precipitation of soricidin. The peptides of the invention, such as SorC13 and SorC27, are typically stable in aqueous solution at 8° C. for at least 3 weeks with no change in purity as measured by HPLC.
“Very stable” in the above table means that there was no observable degradation of the solid peptides over 6 months. As a solution in sterile water, the peptides are typically stable for at least 3 weeks at 8° C. and at −20° C., are expected to be stable more than 1 year.

Data set [9] in a line: Repeated dose toxicity study. To be noted: 400 mg/kg, daily i.p. injection for 12 days. The format is in vivo, NOD/SCID mice. Here is the method: In order to investigate repeated dose toxicity, SorC27 at 400 mg/kg formulated in saline was injected (i.p.) into NOD/SCID mice every day for 12 days. The animals were observed cage-side each day and examined at the end of the experimental period.

A short description of data set [10]: Degradation rate in human plasma (HPLC). The data set is classed as in vitro ADME. Here is the method:
as §2, §3, §4

Data set [11] relates to mealworm larvae. Kind of data set: Mealworm larva paralytic bioassay. The data set is classed as in vivo.
Data set [12] can be described thus: pI. The data set is classed as physicochemical. The note with it: measured.
Data set [13] deals with mealworm larvae. The data set is described as follows: Mealworm larva paralytic bioassay. The format is in vivo. To be noted: for larvae paralyzed: 20 nmole/100 mg mass. An excerpt: To show this, the mealworm larva paralytic bioassay reported previously (U.S. Pat. No. 7,119,168) was used. Animals from a mealworm colony were arbitrarily selected and placed in groups (treatment and control). The animals were weighed to allow calculation of equivalent doses. The treatment was with either SorC13 or SorC27 dissolved in buffered insect Ringer's solution. The control was injection was an equivalent volume of insect Ringer's (NaCl; 10.40 g; KCl, 0.32 g; CaCl2, 0.48 g; NaHCO3, 0.32 g dissolved in 1 L of Millipore sterile water, pH 7.4). Peptide formulations were: SorC27 solutions, prepared at 1.0 mg/100 uL insect Ringer's (10 ug/uL, […], MW=2957); and SorC13, prepared at 0.5 mg/100 uL (5 ug/uL, […], MW=1566). The doses were 50 ug SorC27 per 100 mg of animal mass and 25 ug SorC13 per 100 mg of animal mass. Peptide solutions and control saline were injected dorsally at the fourth segment from the head, just under the integumen. Animals were gently ‘tail tweaked’ with forceps to trigger the escape reflex reaction and scored on time-to-effect, duration of effect and intensity of effect.

Where [14] appears, read: single i.v. 10, 100 and 500 mg/kg.

Where two headings read alike, the source gives them in different places. Bridges are numbered along the chain shown (N, C = ends). Where no end group is shown, it is not given here.

With KEFLHPSKVDLPR [SorC13, KEFLHPSKVDLPR], in [1] (10, 100 and 500 mg/kg doses), the “Maximum Tolerated Dose in CD-1 mice by single i.v. dose” value is reported as “No toxic effects”. Besides, in [1] (setting [14]), the “adverse events over 5-day post-injection observation period” value is recorded as “no adverse events” and the “necropsy changes in major organ systems” value is recorded as “no significant changes in all major organ systems”. The “detectable in tissues after perfusion” value in data set [2] (24 hours) is “still detectable”. The tissue localization result in [2] (i.v. 100 ug) was “localize predominantly in lymph nodes, lung, liver and kidney”. Besides, the “Clearance route in iv mice @ 5 mg/kg” value in data set [3] is “Rapid via kidney”. In data set [4] (aqueous), this sequence yielded a solubility above 200 mg/mL. In data set [5] (Sprague-Dawley, rat, plasma, 37° C.), this sequence had a half-life of 58 min. Moreover, in data set [5] (rat plasma), the “binding to plasma proteins” value is given as “doesn't”. Moreover, the neurological/behavioral changes result in data set [6] (i.v., over 72 hours) is “no neurological/behavioral changes”. In addition, in [6] (i.v., disappeared by 1 hour), the “spike in blood pressure in the first 15 min” value was “approximately 25%”. In [6] (mice @ 5 mg/kg, stabilizes by 1 hr), the “BP spike @ 15 min” value is listed as 15% BP spike, @. Moreover, in [7], the half-maximal inhibitory concentration (IC50) came to 100 nM and the Kd was found to be 100 nM. For the same sequence, in [8], the “Stability in aqueous solution @ −20° C.” value is reported as “Very stable”, the “Stability solid @ Room Temp.” value was “Very stable” and the “Stability solid @ −20° C.” value is “Very stable”. Also, in data set [9], the “Repeated dose in NOD/SCID mice: body weight” value is reported as “No loss of body” and the “Repeated dose in NOD/SCID mice: toxic effects” value is “controls, no toxic”. Further, the “binding to plasma proteins” value in [10] (human plasma) was “doesn't”. In data set [10] (human, plasma, 37° C.), this sequence had a half-life of 56.6 min.

With “DCSQDCAACSILARPAELNTETCILECEGKLSSNDTEGGLCKEFLHPSKVDLPR (disulfide 2-23, 6-27, 9-41) [Sor54, soricidin, reference compound]”, in data set [11], the “Physiol. effects in vivo (mealworm larvae); 5 mg/kg” value was “Paralytic”. In data set [4], the solubility is below 20 mg/mL. For the same sequence, in data set [12], the pI is 4.3 (measured). For the same sequence, in [5] (rat plasma), the “binding to plasma proteins” value is listed as “binds to” and the half-life is above 1800 min. Moreover, the larvae paralyzed in data set [13] (time 0 min) is 4/4. For the same sequence, in [13] (time 2 min), the larvae paralyzed was 4/4. Moreover, the larvae paralyzed in data set [13] (time 30 min) is 4/4. Besides, the “paralysis in the mealworm larva model” value in data set [13] (molar equivalent doses (20 nanomole/100 mg larva)) is given as “profoundly paralytic”. Besides, in [8], the “Stability in aqueous solution @ −20° C.” value is “stable”, the “Stability solid @ Room Temp.” value is “unstable” and the “Stability solid @ −20° C.” value is on record as “stable”. Moreover, in data set [10] (human plasma), the “binding to plasma proteins” value is listed as “binds to” and the half-life is above 1800 min.
